In patent US20240368151A1, “NOVEL ERGOLINES AND METHODS OF TREATING MOOD DISORDERS” (priority 2021, published 2024):

Columns and labels:
[1] = Metabolic stability in human liver microsomes (HLM); assay type: in vitro ADME; details: both sexes, human, pooled human liver microsomes, pH 7.4, NADPH
Excerpt: HLM Stability. Pooled HLM from adult male and female donors (Corning 452117) were used.

[2] = biological target: 5-HT2B receptor (Homo sapiens (Human), UniProt P41595); assay: FLIPR Ca^2+ flux agonist assay at 5-HT2B; assay type: cell-based; details: HEK293
Protocol: (§1) Functional Assays at 5-HT2A, 5-HT2B, and 5-HT1A. Agonist activity at 5-HT2A, 5-HT2B, and 5-HT1A receptors was determined using a FLIPR Ca^2+ flux assay at WuXi AppTec (Hong Kong) Limited according to their standard protocols. Briefly, stably transfected cells expressing the receptor of interest (HEK293 for 5-HT2A and 5-HT2B; CHO cells for 5-HT1A) were grown and plated in a 384 well plate and incubated at 37° C. and 5% CO2 overnight. A solution of 250 mM probenecid in 1 mL FLIPR assay buffer was prepared fresh. This was combined with a fluorescent dye (Fluo-4 Direct™) to make a final assay concentration of 2.5 mM. […] The fluorescent dye was then added to the assay plate along with assay buffer to a final volume of 40 μL. The cell plate was incubated for 50 min at 37° C. and 5% CO2 and placed into the FLIPR Tetra along with the compound plate. 10p L of references and compounds were then transferred from the compound plate into the cell plate and the fluorescent signal was read.

[3] = biological target: T1, 5-HT2A receptor (Homo sapiens (Human), UniProt P28223); assay type: cell-based; details: Ca^2+ flux, HEK293
Protocol: as §1

[4] = biological target: 5-HT1B receptor (Homo sapiens (Human), UniProt P28222); assay: cAMP accumulation agonist assay at 5-HT1B; assay type: cell-based
Protocol: Functional Assay at 5-HT1B. Agonist activity at 5-HT1B was determined using a cAMP accumulation protocol at WuXi AppTec (Hong Kong) Limited according to their standard protocols. Briefly, stably transfected cells were plated in an OptiPlate-384 well plate, incubated at RT for 60 mins, and cAMP standard solution (800 nM, 10 μL) was added to the blank well. Then, 10 μL detection reagent was added to each well, the plate incubated for 60 mins at RT, and the plate read using EnVision.

[5] = Metabolic stability in mouse liver microsomes (MLM); assay type: in vitro ADME; details: mouse, pooled mouse liver microsomes, pH 7.4, MLM (CD-1), NADPH
Excerpt: MLM Stability Pooled MLM from CD-1 mice (BIOIVT M00501) were used.

[6] = biological target: 5-HT1A receptor (Homo sapiens (Human), UniProt P08908); assay: FLIPR Ca^2+ flux agonist assay at 5-HT1A; assay type: cell-based; details: CHO cells
Protocol: as §1

[7] = Metabolic stability in rat liver microsomes (RLM); assay type: in vitro ADME; details: both sexes, rat, pooled rat liver microsomes, pH 7.4, NADPH
[8] = biological target: human 5-HT2C receptor (Homo sapiens (Human), UniProt P28335); assay type: cell-based; details: Ca^2+ flux
[9] = tested on: C57BL/6 mice; assay: Mouse head twitch response (HTR) assay; assay type: in vivo; details: mouse HTR, SC; for Emax (95% CI) / # HTR at Most Efficacious Dose: 20 min observation; for Emax (95% CI): curve fit
Protocol: Agonists of the 5-HT2A receptor are well known to induce this effect in rodents and the potency of this HTR is correlated with hallucinogenic potency in humans.
Animals. Adult male C57BL/6 mice, aged 6-8 weeks (body weight 20-25 g) were used in this experiment. Animals were housed under controlled temperatures and 12-hour light/dark cycles (lights on between 07:00-19:00 h), with ad libitum food and water. This study was carried out in strict accordance with the requirements of the Committee for the Purpose of Control and Supervision of Experiments on Animals (CPCSEA), India. All efforts were made to minimize suffering.
Drugs and Drug Administration. Compound 1 was synthesized as described above. It was administered subcutaneously (SC) dissolved in saline vehicle at a volume of 10 mL/kg. Five doses were tested, with n=6 animals/group. Doses were calculated on the basis of the freebase.
Procedure. Mice were administered one dose of the drug and immediately placed into a small open field for behavioral observation. Animals were observed continuously for 20 mins and the number of head twitches (HTs) were counted by an observer blind to the treatment condition.
Statistical Analysis. The data points shown are the mean±standard error of the mean (SEM). Analysis was performed using GraphPad Prism 6. Curves were fit using a non-linear gaussian distribution to calculate ED50 and Emax values.
Additional disclosed compounds were tested in the mouse head twitch response (HTR) assay according to the procedure described in Example 34. […] Lastly, compounds with much larger benzyl and phenethyl substituents on the amine nitrogen (e.g., 10 and 11) were low efficacy in this assay, consistent with their lower maximal efficacy in the arrestin functional assay (see Example 32).

[10] = biological target: T1, 5-HT2A receptor; assay type: cell-based; details: beta-arrestin recruitment
Protocol: The degree of arrestin bias varied substantially across the other compounds tested as well.
Arrestin Functional Assay at 5-HT2A. Recruitment of beta-arrestin was determined using a PathHunter assay at Eurofins DiscoverX (Fremont, CA) according to their standard protocols. PathHunter GPCR beta-arrestin assays take advantage of DiscoverX's proprietary Enzyme Fragment Complementation technology. The GPCR is fused in frame with a small enzyme donor fragment ProLink™ (PK) and co-expressed in cells stably expressing a fusion protein of beta-arrestin and the larger, N-terminal deletion mutant of beta-galactosidase. Activation of the GPCR (5-HT2A receptor in this case) stimulates binding of beta-arrestin to the PK-tagged GPCR and forces complementation of the two enzyme fragments, resulting in the formation of an active beta-galactosidase enzyme. This interaction leads to an increase in enzyme activity that can be measured using chemiluminescent PathHunter Detection Reagents. Briefly, PathHunter cells expressing 5-HT2A receptors were seeded in a volume of 20 μL into 384-well plates and incubated at 37° C. for the appropriate time prior to testing. […] Plates were then imaged on a microplate reader and the agonist activity was calculated using the following formula: % Activity=100%×(mean RLU of test sample−mean RLU of vehicle control)/(mean MAX control ligand−mean RLU of vehicle control), where RLU=relative light units.

Sequence of 5-HT2B receptor (P41595 whole entry, looked up): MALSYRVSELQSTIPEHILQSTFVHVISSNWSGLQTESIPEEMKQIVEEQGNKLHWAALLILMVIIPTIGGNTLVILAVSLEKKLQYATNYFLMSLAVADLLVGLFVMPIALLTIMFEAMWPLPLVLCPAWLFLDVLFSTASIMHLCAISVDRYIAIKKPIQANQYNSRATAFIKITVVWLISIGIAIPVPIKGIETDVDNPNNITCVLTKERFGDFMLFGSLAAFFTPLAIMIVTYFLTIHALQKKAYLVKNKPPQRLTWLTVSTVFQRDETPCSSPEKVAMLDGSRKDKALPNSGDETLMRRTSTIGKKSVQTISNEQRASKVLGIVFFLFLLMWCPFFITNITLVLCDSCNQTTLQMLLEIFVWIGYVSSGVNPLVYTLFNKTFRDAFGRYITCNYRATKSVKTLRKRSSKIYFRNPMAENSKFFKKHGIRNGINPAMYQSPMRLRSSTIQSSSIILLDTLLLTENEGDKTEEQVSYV
Sequence of human 5-HT2C receptor (P28335 33-458 limits assumed): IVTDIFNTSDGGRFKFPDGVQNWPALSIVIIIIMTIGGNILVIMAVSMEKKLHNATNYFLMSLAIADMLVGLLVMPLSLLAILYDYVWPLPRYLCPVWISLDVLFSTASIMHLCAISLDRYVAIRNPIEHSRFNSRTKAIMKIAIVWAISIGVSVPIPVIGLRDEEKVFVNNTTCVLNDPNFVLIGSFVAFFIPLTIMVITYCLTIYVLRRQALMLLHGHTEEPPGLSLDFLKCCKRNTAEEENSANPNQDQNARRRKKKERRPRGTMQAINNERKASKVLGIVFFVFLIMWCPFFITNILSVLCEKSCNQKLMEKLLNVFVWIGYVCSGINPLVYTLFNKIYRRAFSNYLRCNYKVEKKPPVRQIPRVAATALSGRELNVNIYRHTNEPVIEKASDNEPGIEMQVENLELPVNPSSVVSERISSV
Sequence of 5-HT1B receptor (P28222 whole entry, looked up): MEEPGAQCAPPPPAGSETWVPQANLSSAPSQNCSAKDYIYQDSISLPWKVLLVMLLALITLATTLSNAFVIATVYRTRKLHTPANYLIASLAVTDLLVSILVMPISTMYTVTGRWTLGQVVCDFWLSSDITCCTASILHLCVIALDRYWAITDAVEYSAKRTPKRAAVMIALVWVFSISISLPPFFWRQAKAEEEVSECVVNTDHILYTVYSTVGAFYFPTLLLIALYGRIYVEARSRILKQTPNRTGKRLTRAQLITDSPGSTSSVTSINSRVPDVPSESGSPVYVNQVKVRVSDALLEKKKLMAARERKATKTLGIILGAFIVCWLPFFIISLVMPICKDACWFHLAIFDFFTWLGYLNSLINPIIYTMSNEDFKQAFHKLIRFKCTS

Row | SMILES | half-life at 1 μM [1] | 5-HT2B % Act @ Max Dose [2] | 5-HT2A % Act @ Max Dose [3] | 5-HT1B % Act @ Max Dose [4] | half-life at 1 μM [5] | 5-HT1A % Act @ Max Dose [6] | half-life at 1 μM [7] | 5-HT2C % Act @ Max Dose [8] | Most Efficacious Dose [9] | Emax (95% CI) [9] | 5-HT2A Arrestin % Act @ Max Dose [10] | agonist type in the 5-HT2A arrestin recruitment assay, in words [10] | # HTR at Most Efficacious Dose [9]
1 | CCN(CC)C(=O)[C@@H]1C=C2c3cccc4[nH]cc(c34)C[C@H]2N(CCc2ccc(OC)cc2)C1 [Compound 21, (6aR,9R)-N,N-diethyl-7-(4-methoxyphenethyl)-4,6,6a,7,8,9-hexahydroindolo[4,3-fg]quinoline-9-carboxamide] | 3.8 min | 1.73% | 51.23% | 79.13% | 1.9 min | 8.2% | 4.3 min | – | – | – | – | – | –
2 | CCN(CC)C(=O)[C@@H]1C=C2c3cccc4[nH]cc(c34)C[C@H]2N(Cc2ccccc2O)C1 [Compound 16, (6aR,9R)-N,N-diethyl-7-(2-hydroxybenzyl)-4,6,6a,7,8,9-hexahydroindolo[4,3-fg]quinoline-9-carboxamide] | 4.9 min | 26.497% | 62.05% | 90.1% | 1.3 min | 22.29% | 2.2 min | – | – | – | – | – | –
3 | CCN(CC)C(=O)[C@@H]1C=C2c3cccc4[nH]cc(c34)C[C@H]2N(Cc2ccccn2)C1 [Compound 22, (6aR,9R)-N,N-diethyl-7-(pyridin-2-ylmethyl)-4,6,6a,7,8,9-hexahydroindolo[4,3-fg]quinoline-9-carboxamide] | 23.8 min | 7.74% | 64.47% | 89.15% | 9.2 min | 57.33% | 13.2 min | – | – | – | – | – | –
4 | CCN(CC)C(=O)[C@@H]1C=C2c3cccc4[nH]cc(c34)C[C@H]2N(CCc2ccccn2)C1 [Compound 23, (6aR,9R)-N,N-diethyl-7-(2-(pyridin-2-yl)ethyl)-4,6,6a,7,8,9-hexahydroindolo[4,3-fg]quinoline-9-carboxamide] | 7.2 min | 12.50% | 85.397% | 83.68% | 1.8 min | 46.19% | 4.2 min | – | – | – | – | – | –
5 | CCN(CC)C(=O)[C@@H]1C=C2c3cccc4[nH]cc(c34)C[C@H]2N(CCc2cccc(OC)c2)C1 [Compound 20, (6aR,9R)-N,N-diethyl-7-(3-methoxyphenethyl)-4,6,6a,7,8,9-hexahydroindolo[4,3-fg]quinoline-9-carboxamide] | 2.1 min | 3.60% | 77.19% | 34.59% | 0.9 min | 3.85% | 1.2 min | – | – | – | – | – | –
6 | CCC[C@@H](C)NC(=O)[C@@H]1C=C2c3cccc4[nH]cc(c34)C[C@H]2N(C)C1 [Int17, (6aR,9R)-7-methyl-N-((R)-pentan-2-yl)-4,6,6a,7,8,9-hexahydroindolo[4,3-fg]quinoline-9-carboxamide] | 15.9 min | 25.49% | 91.47% | – | 8.25 min | 113.04% | 27.9 min | 102.19% | (0.32 mg/kg) | 4.96 | 38.809% | partial agonists | –
7 | C=CCN1C[C@H](C(=O)N[C@H](C)CC)C=C2c3cccc4[nH]cc(c34)C[C@H]21 [Compound 8, (6aR,9R)-7-allyl-N-((R)-sec-butyl)-4,6,6a,7,8,9-hexahydroindolo[4,3-fg]quinoline-9-carboxamide] | 7.9 min | 91.56% | 99.25% | – | 3.7 min | 116.41% | 7.7 min | 108.26% | (1 mg/kg) | 12.03 | 112.42% | full agonists | 15.75
8 | CCN(CC)C(=O)[C@@H]1C=C2c3cccc4[nH]cc(c34)C[C@H]2N(Cc2cccc(OC)c2)C1 [Compound 18, (6aR,9R)-N,N-diethyl-7-(3-methoxybenzyl)-4,6,6a,7,8,9-hexahydroindolo[4,3-fg]quinoline-9-carboxamide] | 13.6 min | 4.69% | 61.09% | 83.31% | 2.6 min | 28.93% | 5.3 min | – | – | – | – | – | –
9 | CC[C@@H](C)NC(=O)[C@@H]1C=C2c3cccc4[nH]cc(c34)C[C@H]2N(C)C1 [Int8, (6aR,9R)-N-((R)-sec-butyl)-7-methyl-4,6,6a,7,8,9-hexahydroindolo[4,3-fg]quinoline-9-carboxamide] | 64.9 min | 17.7% | 96.25% | – | 39.9 min | 90.25% | 99.5 min | 98.245% | (1 mg/kg) | 14.34 | 46.06% | partial agonists | 13.5
10 | CCN(CC)C(=O)[C@@H]1C=C2c3cccc4[nH]cc(c34)C[C@H]2N(Cc2ccc(OC)cc2)C1 [Compound 19, (6aR,9R)-N,N-diethyl-7-(4-methoxybenzyl)-4,6,6a,7,8,9-hexahydroindolo[4,3-fg]quinoline-9-carboxamide] | 16.8 min | 2.44% | 70.54% | 71.08% | 7.2 min | −0.65% | 10 min | – | – | – | – | – | –
